According to the supplement of paper PMC10307832:

Experiments:
Assay in all cases: relative viability (nuclei count vs DMSO), 5 days (fraction); higher = more cells survive
[1] = test system: NCI-H1734
Procedure, shortened: (§1)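 The day after seeding in 1536-well plates, lung cancer cell lines were treated by pin tool with a single drug, or with a fixed anchor-drug dose together with five library-drug doses (not always all listed) in √10 steps. After 5 days, a combined fix-and-stain solution (final 0.05% Triton X-100, 1% formaldehyde, 1 ug/ml Hoechst) was added. Nuclei counted on 4× images gave relative viability as treated counts over vehicle counts, reported as the median of duplicate plates.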

[2] = test system: NCI-H2405
Procedure, shortened: as §1

[3] = test system: NCI-H2347
Procedure, shortened: as §1

[4] = test system: NCI-H2170
Procedure, shortened: as §1

[5] = test system: NCI-H322M
Procedure, shortened: as §1

[6] = test system: NCI-H520
Procedure, shortened: as §1

[7] = test system: NCI-H2023
Procedure, shortened: as §1

[8] = test system: HCC-15
Procedure, shortened: as §1

[9] = test system: NCI-H1563
Procedure, shortened: as §1

[10] = test system: NCI-H1793
Procedure, shortened: as §1

[11] = test system: H3255
Procedure, shortened: as §1

[12] = test system: 201T
Procedure, shortened: as §1

[13] = test system: COR-L23
Procedure, shortened: as §1

[14] = test system: EPLC-272H
Procedure, shortened: as §1

[15] = test system: LOU-NH91
Procedure, shortened: as §1

[16] = test system: NCI-H3122
Procedure, shortened: as §1

[17] = test system: NCI-H441
Procedure, shortened: as §1

[18] = test system: PC-14
Procedure, shortened: as §1

[19] = test system: UMC-11
Procedure, shortened: as §1

[20] = test system: NCI-H647
Procedure, shortened: as §1

CCN(CC)CCCCNc1ncc2cc(-c3cc(OC)cc(OC)c3)c(NC(=O)NC(C)(C)C)nc2n1 + Cc1nc(NC(=O)N2CCC[C@H]2C(N)=O)sc1-c1ccnc(C(C)(C)C(F)(F)F)c1 [Alpelisib] (partner 2 µM)
relative viability ([1]; first compound 0.01 µM): 0.728
relative viability ([1]; first compound 0.03162 µM): 0.69
relative viability ([1]; first compound 0.1 µM): 0.713
relative viability ([1]; first compound 0.3162 µM): 0.707
relative viability ([1]; first compound 1 µM): 0.708
relative viability ([2]; first compound 0.01 µM): 0.574
relative viability ([2]; first compound 0.03162 µM): 0.709
relative viability ([2]; first compound 0.1 µM): 0.814
relative viability ([2]; first compound 0.3162 µM): 0.862
relative viability ([2]; first compound 1 µM): 0.72
relative viability ([3]; first compound 0.01 µM): 1.08
relative viability ([3]; first compound 0.03162 µM): 1.09
relative viability ([3]; first compound 0.1 µM): 1.04
relative viability ([3]; first compound 0.3162 µM): 1.09
relative viability ([3]; first compound 1 µM): 1.11
relative viability ([4]; first compound 0.01 µM): 0.92
relative viability ([4]; first compound 0.03162 µM): 0.822
relative viability ([4]; first compound 0.1 µM): 0.831
relative viability ([4]; first compound 0.3162 µM): 0.894
relative viability ([4]; first compound 1 µM): 0.807
relative viability ([5]; first compound 0.01 µM): 0.822
relative viability ([5]; first compound 0.03162 µM): 0.782
relative viability ([5]; first compound 0.1 µM): 0.77
relative viability ([5]; first compound 0.3162 µM): 1.02
relative viability ([5]; first compound 1 µM): 0.75
relative viability ([6]; first compound 0.01 µM): 1.07
relative viability ([6]; first compound 0.03162 µM): 0.898
relative viability ([6]; first compound 0.1 µM): 1.16
relative viability ([6]; first compound 0.3162 µM): 0.662
relative viability ([6]; first compound 1 µM): 0.332
relative viability ([7]; first compound 0.01 µM): 0.685
relative viability ([7]; first compound 0.03162 µM): 0.608
relative viability ([7]; first compound 0.1 µM): 0.615
relative viability ([7]; first compound 0.3162 µM): 0.676
relative viability ([7]; first compound 1 µM): 0.529
relative viability ([8]; first compound 0.01 µM): 1.03
relative viability ([8]; first compound 0.03162 µM): 0.885
relative viability ([8]; first compound 0.1 µM): 0.947
relative viability ([8]; first compound 0.3162 µM): 0.966
relative viability ([8]; first compound 1 µM): 0.868
relative viability ([9]; first compound 0.01 µM): 0.849
relative viability ([9]; first compound 0.03162 µM): 0.96
relative viability ([9]; first compound 0.1 µM): 0.896
relative viability ([9]; first compound 0.3162 µM): 0.771
relative viability ([9]; first compound 1 µM): 0.619
relative viability ([10]; first compound 0.01 µM): 0.748
relative viability ([10]; first compound 0.1 µM): 0.958
relative viability ([10]; first compound 0.3162 µM): 0.716
relative viability ([10]; first compound 1 µM): 0.642
relative viability ([11]; first compound 0.01 µM): 0.788
relative viability ([11]; first compound 0.03162 µM): 0.71
relative viability ([11]; first compound 0.1 µM): 0.728
relative viability ([11]; first compound 0.3162 µM): 0.713
relative viability ([11]; first compound 1 µM): 0.689
relative viability ([12]; first compound 0.01 µM): 1.05
relative viability ([12]; first compound 0.03162 µM): 1.01
relative viability ([12]; first compound 0.1 µM): 1.09
relative viability ([12]; first compound 0.3162 µM): 1.1
relative viability ([12]; first compound 1 µM): 0.97
relative viability ([13]; first compound 0.01 µM): 0.819
relative viability ([13]; first compound 0.03162 µM): 1.02
relative viability ([13]; first compound 0.1 µM): 1.19
relative viability ([13]; first compound 0.3162 µM): 0.787
relative viability ([13]; first compound 1 µM): 0.856
relative viability ([14]; first compound 0.01 µM): 0.918
relative viability ([14]; first compound 0.1 µM): 1.01
relative viability ([14]; first compound 0.3162 µM): 1.07
relative viability ([14]; first compound 1 µM): 0.883
relative viability ([15]; first compound 0.01 µM): 0.672
relative viability ([15]; first compound 0.03162 µM): 0.673
relative viability ([15]; first compound 0.1 µM): 0.741
relative viability ([15]; first compound 0.3162 µM): 0.734
relative viability ([15]; first compound 1 µM): 0.696
relative viability ([16]; first compound 0.01 µM): 0.941
relative viability ([16]; first compound 0.03162 µM): 0.877
relative viability ([16]; first compound 0.1 µM): 0.906
relative viability ([16]; first compound 0.3162 µM): 0.931
relative viability ([16]; first compound 1 µM): 0.824
relative viability ([17]; first compound 0.01 µM): 0.801
relative viability ([17]; first compound 0.03162 µM): 0.62
relative viability ([17]; first compound 0.1 µM): 0.698
relative viability ([17]; first compound 0.3162 µM): 0.708
relative viability ([17]; first compound 1 µM): 0.773
relative viability ([18]; first compound 0.01 µM): 1.02
relative viability ([18]; first compound 0.03162 µM): 1.08
relative viability ([18]; first compound 0.1 µM): 0.879
relative viability ([18]; first compound 0.3162 µM): 1.16
relative viability ([18]; first compound 1 µM): 0.943
relative viability ([19]; first compound 0.01 µM): 1.08
relative viability ([19]; first compound 0.03162 µM): 0.921
relative viability ([19]; first compound 0.1 µM): 1.02
relative viability ([19]; first compound 0.3162 µM): 1.17
relative viability ([19]; first compound 1 µM): 0.88
relative viability ([20]; first compound 0.01 µM): 1.41
relative viability ([20]; first compound 0.03162 µM): 1.3
relative viability ([20]; first compound 0.1 µM): 1.31
relative viability ([20]; first compound 0.3162 µM): 1.13
relative viability ([20]; first compound 1 µM): 0.465

COc1nc(C)cnc1NS(=O)(=O)c1cccnc1-c1ccc(-c2nnco2)cc1 [Zibotentan] + C[C@]1(O)C[C@@H](c2nc(-c3ccc4ccc(-c5ccccc5)nc4c3)c3c(N)nccn32)C1 [Linsitinib] (partner 1 µM)
relative viability ([1]; first compound 0.08 µM): 1.01
relative viability ([1]; first compound 0.253 µM): 0.815
relative viability ([1]; first compound 0.8 µM): 0.936
relative viability ([1]; first compound 2.53 µM): 0.975
relative viability ([2]; first compound 0.08 µM): 1.07
relative viability ([2]; first compound 0.253 µM): 0.796
relative viability ([2]; first compound 0.8 µM): 0.908
relative viability ([2]; first compound 2.53 µM): 0.959
relative viability ([3]; first compound 0.08 µM): 0.982
relative viability ([3]; first compound 0.253 µM): 0.833
relative viability ([3]; first compound 0.8 µM): 1.11
relative viability ([3]; first compound 2.53 µM): 0.969
relative viability ([5]; first compound 0.08 µM): 0.912
relative viability ([5]; first compound 0.253 µM): 0.898
relative viability ([5]; first compound 0.8 µM): 0.933
relative viability ([5]; first compound 2.53 µM): 0.843
relative viability ([6]; first compound 0.08 µM): 1.05
relative viability ([6]; first compound 0.253 µM): 0.892
relative viability ([6]; first compound 0.8 µM): 0.904
relative viability ([6]; first compound 2.53 µM): 1.02
relative viability ([7]; first compound 0.08 µM): 0.57
relative viability ([7]; first compound 0.253 µM): 0.544
relative viability ([7]; first compound 0.8 µM): 0.743
relative viability ([7]; first compound 2.53 µM): 0.654
relative viability ([8]; first compound 0.08 µM): 0.905
relative viability ([8]; first compound 0.253 µM): 0.912
relative viability ([8]; first compound 0.8 µM): 0.867
relative viability ([8]; first compound 2.53 µM): 0.878
relative viability ([9]; first compound 0.08 µM): 1.17
relative viability ([9]; first compound 0.253 µM): 0.789
relative viability ([9]; first compound 0.8 µM): 1.39
relative viability ([9]; first compound 2.53 µM): 1.34
relative viability ([10]; first compound 0.08 µM): 0.811
relative viability ([10]; first compound 0.253 µM): 0.824
relative viability ([10]; first compound 0.8 µM): 1.05
relative viability ([10]; first compound 2.53 µM): 1.01
relative viability ([11]; first compound 0.08 µM): 1.02
relative viability ([11]; first compound 0.253 µM): 0.998
relative viability ([11]; first compound 0.8 µM): 0.899
relative viability ([11]; first compound 2.53 µM): 0.983
relative viability ([12]; first compound 0.08 µM): 1
relative viability ([12]; first compound 0.253 µM): 1.02
relative viability ([12]; first compound 0.8 µM): 1.01
relative viability ([12]; first compound 2.53 µM): 1.13
relative viability ([13]; first compound 0.08 µM): 1.02
relative viability ([13]; first compound 0.253 µM): 0.748
relative viability ([13]; first compound 0.8 µM): 0.896
relative viability ([13]; first compound 2.53 µM): 1.14
relative viability ([14]; first compound 0.08 µM): 1.06
relative viability ([14]; first compound 0.253 µM): 1.23
relative viability ([14]; first compound 0.8 µM): 1.33
relative viability ([14]; first compound 2.53 µM): 1.22
relative viability ([15]; first compound 0.08 µM): 0.94
relative viability ([15]; first compound 0.253 µM): 0.836
relative viability ([15]; first compound 0.8 µM): 0.982
relative viability ([15]; first compound 2.53 µM): 1.02
relative viability ([16]; first compound 0.08 µM): 0.983
relative viability ([16]; first compound 0.253 µM): 0.972
relative viability ([16]; first compound 0.8 µM): 1
relative viability ([16]; first compound 2.53 µM): 0.963
relative viability ([17]; first compound 0.08 µM): 0.634
relative viability ([17]; first compound 0.253 µM): 0.552
relative viability ([17]; first compound 0.8 µM): 0.633
relative viability ([17]; first compound 2.53 µM): 0.535
relative viability ([18]; first compound 0.08 µM): 1
relative viability ([18]; first compound 0.253 µM): 0.888
relative viability ([18]; first compound 0.8 µM): 0.937
relative viability ([18]; first compound 2.53 µM): 1.02
relative viability ([19]; first compound 0.08 µM): 1.11
relative viability ([19]; first compound 0.253 µM): 0.944
relative viability ([19]; first compound 0.8 µM): 1.03
relative viability ([19]; first compound 2.53 µM): 1.05
relative viability ([20]; first compound 0.08 µM): 1.12
relative viability ([20]; first compound 0.253 µM): 1.14
relative viability ([20]; first compound 0.8 µM): 1.11
relative viability ([20]; first compound 2.53 µM): 1.15
